The target of the assay is T1, human Flt-3 (Homo sapiens, UniProt P36888).
T1 construct: expresses the amino acid region amino acids 563-993 of the intra-cytoplasmic kinase domains of human Flt-3; made in house; host or cells: Sf9 insect cells (baculovirus, pFbacG01 donor vector)
T1 sequence (P36888 563-993): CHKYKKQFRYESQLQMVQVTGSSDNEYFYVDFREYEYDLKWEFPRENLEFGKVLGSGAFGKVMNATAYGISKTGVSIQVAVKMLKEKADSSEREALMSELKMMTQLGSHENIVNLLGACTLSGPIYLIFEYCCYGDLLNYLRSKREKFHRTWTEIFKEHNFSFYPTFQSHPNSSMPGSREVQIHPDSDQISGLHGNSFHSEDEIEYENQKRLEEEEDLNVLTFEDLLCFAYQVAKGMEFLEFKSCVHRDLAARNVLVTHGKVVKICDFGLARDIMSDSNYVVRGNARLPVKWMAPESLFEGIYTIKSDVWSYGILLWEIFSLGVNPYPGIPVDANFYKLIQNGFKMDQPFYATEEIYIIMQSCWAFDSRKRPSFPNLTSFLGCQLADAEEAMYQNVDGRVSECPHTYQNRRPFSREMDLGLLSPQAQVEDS
Put plainly: Tyrosine protein kinase assay with purified GST-Flt-3 (33P incorporation). To be noted: at a 1.0 micromolar concentration. Type of assay: biochemical. On the procedure:
ATP into appropriate substrates.
The coding sequences for the cytoplasmic domain of Flt-3 was amplified by PCR from human c-DNA libraries (Clontech). The amplified DNA fragments and the pFbacG01 vector were made compatible for ligation by digestion with BamH1 and Hind III. […] The production of the viruses, the expression of proteins in Sf9 cells and the purification of the GST-fused proteins were performed as following:
(Generation of Bac- to Bac GST-fusion vectors); pFbacG01, pFbacGST2T and pFbacGSTx3 Bac-to-Bac™ donor vectors were generated from pAcG1, pAcG2T and pAcG3X respectively, which facilitate the expression of GST-fusion proteins with the possibility of cleavage with thrombin (pFbacGT2) or factor Xa (pFbacGSTx3) while pFbacG01 expresses no proteolytic cleavage site. These were generated in house by isolation of the DNA fragment containing the gene for GST with the C-terminal protease and restriction sites by restriction enzyme digestion of the relevant PharMingen baculovirus donor vector with EcoRV and EcoRI. This EcoRV/EcoRI fragment was ligated into the pFastBac1 vector which had been restriction digested with BamHI, blunt-ended by Klenow reaction and subsequently digested with EcoRI to generate a blunt-ended/EcoRI vector. (Production of virus); Transfer vectors containing the kinase domains were transfected into the DH10Bac cell line (GIBCO) and plated on selective agar plates. Colonies without insertion of the fusion sequence into the viral genome (carried by the bacteria) are blue. Single white colonies were picked and viral DNA (bacmid) isolated from the bacteria by standard plasmid purification procedures. Sf9 cells or Sf21 cells were then transfected in 25 cm^2 flasks with the viral DNA using Cellfectin reagent. (Determination of small scale protein expression in Sf9 cells); Virus containing media was collected from the transfected cell culture and used for infection to increase its titer. Virus containing media obtained after two rounds of infection was used for large-scale protein expression. For large-scale protein expression 100 cm^2 round tissue culture plates were seeded with 5×10^7 cells/plate and infected with 1 mL of virus-containing media (approx. 5 MOIs). After 3 days the cells were scraped off the plate and centrifuged at 500 rpm for 5 min. Cell pellets from 10-20, 100 cm^2 plates, were resuspended in 50 mL of ice-cold lysis buffer (25 mMTris-HCl, pH7.5, 2 mMEDTA, 1% NP-40, 1 mM DTT, 1 mMP MSF). The cells were stirred on ice for 15 min and then centrifuged at 5000 rpms for 20 min.
ATP 0.1 μCi). […] ATP into appropriate substrates. […] Subsequently, 40 μL of the reaction mixture were transferred onto Immobilon-PVDF membrane (Millipore, Bedford, Mass., USA) previously soaked for 5 min with methanol, rinsed with water, then soaked for 5 min with 0.5% H3PO4 and mounted on vacuum manifold with disconnected vacuum source. After spotting all samples, vacuum was connected and each well rinsed with 200 μL 0.5% H3PO4. Membranes were removed and washed 4× on a shaker with 1.0% H3PO4, once with ethanol. Membranes were counted after drying at ambient temperature, mounting in Packard TopCount 96-well frame, and addition of 10 μL/well of Microscint™ (Packard). […] One unit of protein kinase activity is defined as 1 nmole of ^33P ATP transferred from [γ^33P] ATP to the substrate protein per minute per mg of protein at 37° C.

Turning to `COC1C(N(C)C(=O)c2cccc(F)c2)CC2OC1(C)n1c3ccccc3c3c4c(c5c6ccccc6n2c5c31)C(=O)NC4` (stereo not shown) [120685-16-7, (9a,10b,11b,13a)-3-Fluoro-N-(2,3,10,11,12,13-hexahydro-10-methoxy-9-methyl-1-oxo-9,13-epoxy-1H,9H-diindolo[1,2,3-gh:3′,2′,1′-lm]pyrrolo[3,4-j][1,7]benzodiazonin-11-yl)-N-methyl-benzamide], the “Flt3 Inhibition (percent inhibition of Flt3 kinase activity)” value was 60%. As to “(9a,10b,11b,13a)-11-[(N-Acetyl-a-muramoyl)methylamino]-2,3,10,11,12,13-hexahydro-10-methoxy-9-methyl-9,13-epoxy-1H,9H-diindolo[1,2,3-gh:3′,2′,1′-lm]pyrrolo[3,4-j][1,7]benzodiazonin-1-one [149622-53-7]”, the “Flt3 Inhibition (percent inhibition of Flt3 kinase activity)” value was found to be 91%. The figure for “(9a,10b,11b,13a)-11-[(N-Acetyl-6-amino-6-deoxy-b-muramoyl)methylamino]-2,3,10,11,12,13-hexahydro-10-methoxy-9-methyl-9,13-epoxy-1H,9H-diindolo[1,2,3-gh:3′,2′,1′-lm]pyrrolo[3,4-j][1,7]benzodiazonin-1-one [149713-77-9]” is 96%; for `CO[C@@H]1[C@H](N(C)C(=O)OC(C)(C)C)C[C@H]2O[C@]1(C)n1c3ccccc3c3c4c(c5c6ccccc6n2c5c31)C(=O)NC4` [120685-17-8, [9S-(9a,10b,11b,13a)]-(2,3,10,11,12,13-Hexahydro-10-methoxy-9-methyl-1-oxo-9,13-epoxy-1H,9H-diindolo[1,2,3-gh:3′,2′,1′-lm]pyrrolo[3,4-j][1,7]benzodiazonin-11-yl)methyl-carbamic acid, 1,1-dimethylethyl ester] it is 33%; for “(9a,10b,11b,13a)-11-[(N-Acetyl-6-amino-1,6-dideoxymuramoyl)methylamino]-2,3,10,11,12,13-hexahydro-10-methoxy-9-methyl-9,13-epoxy-1H,9H-diindolo[1,2,3-gh:3′,2′,1′-lm]pyrrolo[3,4-j][1,7]benzodiazonin-1-one, monomethanesulfonate [150654-80-1]” it is 97%. As for `CO[C@@H]1[C@H](N(C)C(=O)CCC(=O)[O-])C[C@H]2O[C@]1(C)n1c3ccccc3c3c4c(c5c6ccccc6n2c5c31)C(=O)NC4.[Na+]` [120685-10-1, [9S-(9a,10b,11b,13a)]-4-[(2,3,10,11,12,13-Hexahydro-10-methoxy-9-methyl-1-oxo-9,13-epoxy-1H,9H-diindolo[1,2,3-gh:3′,2′,1′-lm]pyrrolo[3,4-j][1,7]benzodiazonin-11-yl)methylamino]-4-oxo-butanoic acid, sodium salt], the figure is 98%; as for “(9a,10b,11b,13a)-11-[(N-Acetyl-4,6-di-O-acetyl-a-muramoyl)methylamino]-2,3,10,11,12,13-hexahydro-10-methoxy-9-methyl-9,13-epoxy-1H,9H-diindolo[1,2,3-gh:3′,2′,1′-lm]pyrrolo[3,4-j][1,7]benzodiazonin-1-one [149622-65-1]”, 74%; as for `CNC1CC2OC(C)(C1O)n1c3ccccc3c3c4c(c5c6ccccc6n2c5c31)C(=O)NC4` [239785-03-6, (9R,10S,11S,13S)-2,3,10,11,12,13-Hexahydro-10-hydroxy-9-methyl-11-(methylamino)-,9,13-epoxy-1H,9H-diindolo[1,2,3-gh:3′,2′,1′-lm]pyrrolo[3,4-j][1,7]benzodiazonin-1-one], 100%. The figure for `COC1C(=NOC(C)=O)CC2OC1(C)n1c3ccccc3c3c4c(c5c6ccccc6n2c5c31)C(=O)NC4` (stereo not drawn) [187457-78-9, [9S-(9a,10b,13a)]-2,3,9,10,12,13-Hexahydro-10-methoxy-9-methyl-9,13-epoxy-1H,11H-diindolo[1,2,3-gh:3′,2′,1′-lm]pyrrolo[3,4-j][1,7]benzodiazonine-1,11-dione, 11-(O-acetyloxime)] is 77%; for `COC1C(N(C)C(=O)c2cccnc2)CC2OC1(C)n1c3ccccc3c3c4c(c5c6ccccc6n2c5c31)C(=O)NC4` (stereo not drawn) [155848-16-1, [9S-(9a,10b,11b,13a)]-N-(2,3,10,11,12,13-Hexahydro-10-methoxy-9-methyl-1-oxo-9,13-epoxy-1H,9H-diindolo[1,2,3-gh:3′,2′,1′-lm]pyrrolo[3,4-g][1,7]benzodiazonin-11-yl)-N-methyl-3-pyridinecarboxamide] it is 89%. As to “[9S-(9a,10b,11b,13a)]-N-(2,3,10,11,12,13-Hexahydro-10-methoxy-9-methyl-1-oxo-9,13-epoxy-1H,9H-diindolo[1,2,3-gh:3′,2′,1′-lm]pyrrolo[3,4-j][1,7]benzodiazonin-11-yl)-N-methyl-2-[(tetrahydro-2H-pyran-4-yl)oxy]-acetamide [160251-52-5]”, the “Flt3 Inhibition (percent inhibition of Flt3 kinase activity)” value was determined as 94%. As for “(9a,10b,11b,13a)-11-[[N-Acetyl-6-amino-6-deoxy-1-O-(phenylmethyl)-a-muramoyl]methylamino]-2,3,10,11,12,13-hexahydro-10-methoxy-9-methyl-9,13-epoxy-1H,9H-diindolo[1,2,3-gh:3′,2′,1′-lm]pyrrolo[3,4-j][1,7]benzodiazonin-1-one, monomethanesulfonate [150622-14-3]”, the figure is 99%; as for `CC[N+](C)(C)C1CC2OC(C)(C1OC)n1c3ccccc3c3c4c(c5c6ccccc6n2c5c31)C(=O)NC4.[I-]` (stereo not drawn) [120685-28-1, N-Ethyl-[9S-(9a,10b,11b,13a)]-2,3,10,11,12,13-hexahydro-10-methoxy-N,N,9-trimethyl-1-oxo-9,13-epoxy-1H,9H-diindolo[1,2,3-gh:3′,2′,1′-lm]pyrrolo[3,4-j][1,7]benzodiazonin-11-aminium iodide], 100%. In the case of “(9a,10b,11b,13a)-11-[[N-Acetyl-6-O-(methylsulfonyl)-a-muramoyl]methylamino]-2,3,10,11,12,13-hexahydro-10-methoxy-9-methyl-9,13-epoxy-1H,9H-diindolo[1,2,3-gh:3′,2′,1′-lm]pyrrolo[3,4-j][1,7]benzodiazonin-1-one [149622-54-8]”, the “Flt3 Inhibition (percent inhibition of Flt3 kinase activity)” value was 94%. The figure for `CO[C@@H]1[C@H](N)C[C@H]2O[C@]1(C)n1c3ccccc3c3c4c(c5c6ccccc6n2c5c31)C(=O)NC4` [126221-77-0, (9S,10R,11R,13R)-11-Amino-2,3,10,11,12,13-hexahydro-10-methoxy-9-methyl-9,13-epoxy-1H,9H-diindolo[1,2,3-gh:3′,2′,1′-lm]pyrrolo[3,4-j][1,7]benzodiazonin-1-one] is 96%; for `COC1C(N(C)C(=O)CN)CC2OC1(C)n1c3ccccc3c3c4c(c5c6ccccc6n2c5c31)C(=O)NC4.Cl` (stereo not drawn) [124151-42-4, [9S-(9a,10b,11b,13a)]-2-Amino-N-(2,3,10,11,12,13-hexahydro-10-methoxy-9-methyl-1-oxo-9,13-epoxy-1H,9H-diindolo[1,2,3-gh:3′,2′,1′-lm]pyrrolo[3,4-j][1,7]benzodiazonin-11-yl)-N-methyl-acetamide, monohydrochloride] it is 97%.

For the origin of these results see patent US8222244B2, “Staurosporine derivatives as inhibitors of FLT3 receptor tyrosine kinase activity” (Novartis AG, priority 2001, dated 2012).
